In patent US20130324520A1, “RXRG MODULATORS FOR THE TREATMENT OF CANCER” (SLOAN-KETTERING INSTITUTE FOR CANCER RESEARCH, priority 2011, published 2013):
“Also recorded” adds a separate entry of the source. Like-named read-outs stand apart in the source and are kept apart here.

Assays:
[1] = system: WERI
Experimental: Colon, lung, pancreatic cancer, retinoblastoma and other cell lines were cultured in culture medium consisting of IMDM (Medium Lab, MSKCC, NY) with 10% FBS (SH3008803, HyClone, Thermo Scientific), 2 mM glutamine (Invitrogen), 55 μM beta-mercaptoethanol (Invitrogen), 1% Penicillin/streptomycin (Invitrogen), and 2.5 μg/ml Plasmocin (Invivogen), at 37° C. in a humidified incubator with 5% CO2. Melanoma cell lines were culture in RPMI with above additives.
Colon, lung, pancreatic, breast, prostate cancer cell lines and other cancer cell lines were cultured in 10 cm dishes or 24 well plates with complete IMDM or RPMI (for melanoma) with 30-50% confluence. […] DMSO was used for control. After 3-6 days treatment, cells were collected and counted with trypan blue. Dose-effectiveness curves were generated with series dilution of compounds in medium for treatment of cells.

[2] = system: SCLC; assay: Drug treatment on cancer cell lines, cell counting (group of lines); format: cell-based; conditions: certain RB1 mutant SCLC
Description: (§1) DMSO was used for control.

[3] = system: PTEN mutated prostate cancer, small cell lung cancer, and breast cancer; assay: as above; format: cell-based; conditions: PTEN mutant lines as a group
Description: as §1

[4] = system: RB177; assay: Cell cycle synchronization and cell cycle analysis; format: cell-based
Experimental: (§2) After drug treatment, cells were collected for cell cycle analysis, RNA isolation, quantitative PCR, western blot, and immunofluorescence. For cell cycle analysis, retinoblastoma, neuroblastoma, lung, pancreatic, and colon cancer cells were collected and dissociated on days 3, 5, 7, 9, 11, and 16 after treatment. Cells were fixed by 70% cold ethanol alcohol while vortex, and put in −20° C. for storage. […] At 24 hours after treatment, 4 ug/ml Aphidicolin was added to cells with compounds for 24 hr. Aphidicolin was removed by centrifugation and PBS wash, and then added to new wells with fresh medium and compounds. Cells were collected and fixed before addition of aphidicolin, immediately after removal of aphidicolin, and every two hours thereafter until 16-18 hours.
(§3) The tubes with cells were taken out of the freezer and alcohol was removed by centrifugation. 150 ul of 0.06 mg/ml propidium iodide with 0.1% NF40 was added to the cells, and then 100 ul of 2 mg/ml of RNase was added to the cells. These were mixed well and incubated at 37° C. for 30 min. The cell ploidy according to DNA contents were measured in FACSCalibur with FL3-Width and FL3-Height as the parameter. Flowjo was used for analysis of the cell cycle changes.

[5] = system: A549; assay: DAPI staining of treated cells; format: cell-based; conditions: 6 uM, day 1
Experimental: (§4) Colon cancer or lung cancer cells were passaged to dishes with coverslips, and incubated in a humidified incubator at 5% CO2 and 37° C. for 1-2 days. The medium was removed and the cells fixed in 4% PFA/PBS for 5 min, gently rinsed with 0.15 M NaCl/20 mM Tris (pH 8.0; TBS), dried, and stored at −20° C.
Co-staining analyses with other antibodies: On completing the first staining reaction as described above, cells were incubated in block 1 for 20 min, incubated overnight with primary antibody in block 1, washed in PBS, incubated for 30 min in block 1 with Cy3 or Cy5 conjugated secondary antibody, and washed in PBS. Sections were then stained with 4′,6′-diamino-2-phenylindole (DAPI) in PBS, mounted in [sequence] Mounting Media (Vector Labs), and analyzed by inverted immunofluorescent microscopy (Axioplan2 Imaging, Carl Zeiss MicroImaging, LLC).

[6] = system: EGFR and KRAS activated NSCLC, pancreatic, and colon cancers; assay: Drug treatment on cancer cell lines, cell counting (group of lines); format: cell-based
Description: as §1

[7] = system: p53-targeted genes in RB177; assay: Real time PCR of p53-targeted genes; format: cell-based
Experimental: Total RNA was isolated from puromycin-selected cells using RNeasy Mini Kit (Qiagen) or GenElute™ Mammalian Total RNA Miniprep Kit (Sigma). RNA reverse transcription was performed with ImProm-II™ Reverse Transcription System (Promega). Primers were designed by Beacon Designer software (Premier Biosoft International) or web-based Primer3 (http://frodo.wi.mit.edu/primer3/). Relative mRNA levels were determined by qPCR using QuantiTect SYBR Green PCR Kit (Qiagen) or Fermentus Maxima® SYBR Green qPCR Master Mix on an Applied Biosystems ABI 7900HT Sequence Detection System. Two samples for each group were collected and evaluated in triplicate and normalized to β-actin mRNA quantitated in parallel. Program conditions: activation, 95° C. 10 min; amplification, 40 cycles (denaturation 95° C. 20 sec, annealing 54° C. 30 sec, extension 72° C. 30 sec). qPCR primers are listed in Table 7.

[8] = system: Rb, CDK2, Emi1, SKP2 in HCT116; assay: Western blot after drug treatment; format: cell-based; conditions: HCT116, day 2
Experimental: […] Sample buffer was added and heated at 95° C. for 5 min before PAGE or for storage at −80° C. Frozen samples were heated again for 5 min before PAGE.

[9] = system: Cdh1 in A549; assay: Cdh1 localisation after treatment; format: cell-based; conditions: lung cancer cells A549
Experimental: as §4
Staining with mouse antibodies: Cells were treated with 1 mM EDTA/PBS for 5 min at room temperature and, washed with PBS. Cells were treated with ABC kit reagent A (Vector Laboratories, Burlingame, Calif.) in PBS for 15 min, washed in TBS, treated with ABC kit reagent B (Vector Laboratories) in TBS for 15 min, washed in PBS, blocked and permeabilized for 20 min in block 1 (2.5% horse serum, 2.5% donkey serum, 2.5% human serum, 1% BSA, 0.1% Triton-X-100, and 0.05% Tween-20 in TBS; filtered with 0.22 um filter), incubated in the above mouse primary antibodies in block 1 overnight at 4° C., and washed in PBS. […]
Co-staining analyses with other antibodies: On completing the first staining reaction as described above, cells were incubated in block 1 for 20 min, incubated overnight with primary antibody in block 1, washed in PBS, incubated for 30 min in block 1 with Cy3 or Cy5 conjugated secondary antibody, and washed in PBS. […] Mounting Media (Vector Labs), and analyzed by inverted immunofluorescent microscopy (Axioplan2 Imaging, Carl Zeiss MicroImaging, LLC).

[10] = system: A549; assay: Cell cycle synchronization and cell cycle analysis; format: cell-based; conditions: treatment for 2 days
Experimental: as §2, §3

| Compound | cell growth (cell number changes) [1] | cell growth (cell number changes) ([1]; retinoblastoma) | cell growth [2] | cell growth [3] | cell growth ([3]; listed as bexarotene) | cell cycle after synchronization ([4]; 10 uM, 2 days) | cell cycle ([4]; different dosages) | DNA condensation and separation (DAPI staining) [5] | mitosis (DAPI staining) [5] | sensitivity of cell lines to treatment ([6]; HX531 6 uM (FIG. 22), EGFR, KRAS, NRAS activated) | cell growth / proliferation ([6]; KRAS or EGFR mutant colon, NSCLC, pancreatic, hepatoma cells, concentration not given) | expression of p53-targeted genes (14-3-3, GADD45, p21, MDM2) [7] | Western blot: Rb phosphorylation, CDK2, Emi1, SKP2 [8] | Cdh1 localisation [9] | cell cycle [10] |
| --- | --- | --- | --- | --- | --- | --- | --- | --- | --- | --- | --- | --- | --- | --- | --- |
| C=C(c1ccc(C(=O)O)cc1)c1cc2c(cc1C)C(C)(C)CCC2(C)C [Bexarotene] | suppressed | Growth suppression | significantly suppresses | suppressed growth | significantly suppresses | delayed S phase progression and delayed G2/M transition | G2-M block and polyploidy |  |  |  |  |  |  |  |  |
| CN1c2ccc([N+](=O)[O-])cc2N=C(c2ccc(C(=O)O)cc2)c2cc3c(cc21)C(C)(C)CCC3(C)C [HX531] |  |  |  |  |  |  |  | DNA condensation and separation defects | significantly suppressed mitosis; also recorded: significantly reduced mitosis | sensitive | can significantly suppress colon cancer and non-small cell lung cancer proliferation | did not promote expression of these genes; also recorded: suppressed | SKP2 degradation was also observed; also recorded: RB de-phosphorylation and downregulation of CDK2, Emi1, and SKP2; also recorded: significant Emi1 downregulation and inactivation of Emi1, and degradation of SKP2; also recorded: dephosphorylated Rb and downregulated CDK2, Emi1, and SKP2 | Cdh1 nuclear translocation | G1 arrest |
